Data reported in paper PMC8058733, “A pain killer without analgesic tolerance designed by co-targeting PSD-95-nNOS interaction and α2-containning GABAARs” (Theranostics, 2021).

Columns and labels:
[1] = system: SNL-induced mechanical hyperalgesia; experiment: SNL-induced mechanical hyperalgesia, paw withdrawal threshold; type: in vivo, rat; details: SNL rats, 60 mg/kg/d, i.g., 11 d
Method: (§1) Neuropathic pain was induced by segmental spinal nerve ligation (SNL). Animals were anesthetized with isoflurane. After the loss of righting reflex, the animal was fixed in the prone position. The SNL model was prepared as described previously: a median skin incision with about 3-5 cm length in L4-S2 level of the mouse back was made, the muscles next to the vertebrae till the sixth lumbar protruding were separated, the L5/L6 joint protruding on the right side was exposed and excised, and L6 processus transversus was partially split so that the L4-L6 spinal nerves on the right side were exposed. L5 nerve was gently isolated and tightly ligated with 5-0 silk thread. The wound was closed with 4-0 silk thread suture and covered with iodine solution. After nerve ligation, animals with signs of paw clonus or autotomy were excluded from further experiments.
Osmotic minipumps (models 1004 for mouse and 2ML4 for rat; Alzet) and intrathecal cannulas (0.61 mm outer diameter and 0.28 mm inner diameter for mouse, 0.99 mm outer diameter and 0.58 mm inner diameter for rat) were filled with a solution of PBS. Cannulas were inserted into the subarachnoid space through the space between the L5 and L6 vertebrae and the tip of the catheter was implanted at the L5 spinal segmental level.
For rats, the threshold for 50% paw withdrawal (50% PWT) response to mechanical stimulus was assessed through a dynamic plantar apparatus (Ugo Basile, Italy). The 50% PWT refers to that the probability of paw withdrawal response to repeated mechanical stimulus is 50%. Rats were placed individually in a plastic cage (17 × 15 × 15 cm) with a wire mesh bottom which allowed full access to the paws. Behavioral accommodation was allowed for 15-20 min until cage exploration and major grooming activities ceased. A maximal cut-off of 50g/50s was set to prevent tissue damage. To record the PWT in response to mechanical stimulus, each rat was measured five times with a 5-min interval, and the mean value was recorded after excluding maximal and minimum values. The experimental procedures were performed in a double-blind manner.

α2β3γ2 GABAARs = biological target: T1, α2β3γ2 GABAARs (Homo sapiens, UniProt P18507+P28472+P47869); experiment: Potentiation of GABA-evoked currents, whole-cell patch-clamp in HEK293 cells transiently expressing recombinant GABAARs; type: cell-based
T1 construct: Shanghai Genechem Co.,Ltd (γ2 plasmid); host or cells: HEK293
T1 sequence (P47869 29-451): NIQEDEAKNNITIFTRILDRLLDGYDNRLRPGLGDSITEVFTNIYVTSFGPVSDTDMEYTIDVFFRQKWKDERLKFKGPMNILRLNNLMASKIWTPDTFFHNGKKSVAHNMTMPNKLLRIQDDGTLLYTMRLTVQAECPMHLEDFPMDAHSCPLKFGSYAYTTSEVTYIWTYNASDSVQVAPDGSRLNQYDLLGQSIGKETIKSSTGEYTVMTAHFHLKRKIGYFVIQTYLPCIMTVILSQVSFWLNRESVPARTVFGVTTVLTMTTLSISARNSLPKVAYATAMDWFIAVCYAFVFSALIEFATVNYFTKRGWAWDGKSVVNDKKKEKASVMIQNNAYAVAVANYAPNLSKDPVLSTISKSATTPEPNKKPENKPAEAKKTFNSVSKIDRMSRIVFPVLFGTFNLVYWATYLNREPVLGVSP
T1 sequence (P28472 26-473): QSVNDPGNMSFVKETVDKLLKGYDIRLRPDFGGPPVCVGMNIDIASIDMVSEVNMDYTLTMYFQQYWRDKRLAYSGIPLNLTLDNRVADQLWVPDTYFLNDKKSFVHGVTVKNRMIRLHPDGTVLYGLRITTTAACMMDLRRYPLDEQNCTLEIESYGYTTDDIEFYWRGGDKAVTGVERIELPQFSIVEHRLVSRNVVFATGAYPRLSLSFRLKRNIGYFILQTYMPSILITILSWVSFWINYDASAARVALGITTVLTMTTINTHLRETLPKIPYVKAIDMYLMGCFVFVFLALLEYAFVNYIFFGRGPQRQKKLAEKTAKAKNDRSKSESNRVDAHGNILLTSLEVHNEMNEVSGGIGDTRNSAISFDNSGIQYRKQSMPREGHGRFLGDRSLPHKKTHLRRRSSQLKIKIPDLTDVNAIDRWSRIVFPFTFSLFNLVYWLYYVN
T1 sequence (P18507 40-475): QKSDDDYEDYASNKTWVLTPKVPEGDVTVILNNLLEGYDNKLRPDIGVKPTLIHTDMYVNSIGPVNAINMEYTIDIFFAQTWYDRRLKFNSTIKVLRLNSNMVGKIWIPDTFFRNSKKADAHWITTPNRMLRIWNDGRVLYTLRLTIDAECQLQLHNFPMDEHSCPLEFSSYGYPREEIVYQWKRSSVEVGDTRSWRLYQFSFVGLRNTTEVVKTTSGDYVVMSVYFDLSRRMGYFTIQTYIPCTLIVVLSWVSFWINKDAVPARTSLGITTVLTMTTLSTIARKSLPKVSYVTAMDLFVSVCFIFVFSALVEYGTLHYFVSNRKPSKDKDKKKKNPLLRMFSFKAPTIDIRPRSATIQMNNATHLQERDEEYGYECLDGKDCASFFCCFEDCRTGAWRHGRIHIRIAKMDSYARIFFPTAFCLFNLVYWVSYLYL
Method: (§2) The affinities of drugs for α1, α2, α3 and α5 subunits were studied in the HEK293 cells (from FuHeng Biology, Shanghai, China) transiently expressing recombinant GABAARs (α1β2γ2, α2β3γ2, α3β3γ2 and α5β2γ2) as described previously. Briefly, the HEK293 cells were cultured in MEM medium supplemented with 10% FBS (fetal bovine serum, Gibico), 1% L-glutamine (Gibco) and 1% mycillin (Gibco). Before transfection, the cells were subcultured onto a 3.5cm dish at the ratio of 1:2. Then, the plasmids of α1/α2/α3/α5 (Origene), β2/β3 (Origene) and γ2 (Shanghai Genechem Co.,Ltd ) (5μg total DNA, ratio 1:1:2) were transfected using Fugene®HD transfection reagent (Promega). The γ2 subunit contained GFP from IRES (internal ribosomal entry site) and was used as a marker of the successful transfection. Cells were used for electrophysiology recording 18-36 hours after transfection.
(§3) Electrophysiology recordings from HEK293 cells were performed as described previously. Briefly, whole-cell patch-clamp recordings of GABA-evoked currents were made at 30 °C with the holding potential of -60 mV. The internal solution (solution in recording electrodes) contained (in mM): 120 CsCl, 10 EGTA, 10 HEPES, 4 MgCl2, 0.5 GTP, 2 ATP and pH was adjusted to 7.4 with CsOH and the external solution contained (in mM): 150 NaCl, 10 KCl, 2 CaCl2, 1 MgCl, 10 HEPES, 10 Glucose and pH was adjusted to 7.4 with NaOH. ACSF was bubbled continuously with carbogen (95%O2 and 5%CO2). For the recording of GABA-evoked currents, the slides were transferred to a recording chamber, which was perfused with ACSF at a rate of 4 ml/min. The cells were viewed under upright microscopy (Olympus), and GFP-positive cells were selected to record the currents. The interval time between each different dose of GABA was controlled, 3 to 5 minutes to avoid the desensitization of GABAARs.

spatial memory = experiment: Morris water maze task; type: in vivo; details: rats; ZL006-05 90 mg/kg/d, i.g.; MK801 0.25 mg/kg/d, i.v.; 6 days
Method: The Morris water maze task was used to exam spatial cognitive performance of rats. A circular swimming pool (Jiliang Neuroscience Inc.) measuring 180 cm in diameter and 48 cm in height was filled with water to a depth of 26 cm at 24 ± 2 °C. Four starting points around the edge of the pool were designated as N, E, S, and W, which divided the pool into four quadrants. A platform, 10 cm in diameter, was located in a constant position in the middle of one quadrant. To render it invisible to the rats, platform was submerged 2.0 cm below the surface of the water. The task for the rats was to escape from the water by locating the hidden platform. Two days before training, the animals were habituated to swimming for 60 s in the pool without a platform. In training session, rats were trained to escape from the water by locating the platform which was above the water with a red flag on it. Then, one block of four trails was given for 6 consecutive days, and on each day, two groups of rats were administrated with MK801 (0.25 mg/kg, i.v.) or vehicle (6 mL/kg, i.v.) 30 minutes before the first trail. Meanwhile, another two groups of rats were treated with ZL006-05 (90 mg/kg, i.g.) or vehicle (6 mL/kg, i.g.) 1 hour before the first trail. […] During retention, the number of crossings of the platform location and the time spent in the target quadrant were measured.

neuropathic pain = system: neuropathic pain; set-up: method as in PMID 32632774; details: treatment of neuropathic pain, chronic use; cited from earlier work
[2] = system: SNL-induced mechanical hyperalgesia; experiment: SNL-induced mechanical hyperalgesia, von Frey; type: in vivo, mice; details: SNL mice, ZL006-05 60 mg/kg/d, i.g., × 28 d; pregabalin 30 mg/kg/d
Method: as §1
For mice, the threshold for 50% PWT response to mechanical stimulus was quantified by assessing the paw withdrawal threshold using von Frey filaments (Touch-Test TM Sensory Evaluator, North coast Medical, Inc.). Mice were placed individually in a plastic cage (4.5 × 5 × 11 cm) with a wire mesh bottom which allowed full access to the paws. Behavioral accommodation was allowed for 20-30 min until cage exploration and major grooming activities ceased. Mechanical threshold was measured by applying a von Frey filament to the ventral surface of the right hind paw until a positive sign of pain behavior was elicited. The paradigm for assessing the threshold was as follows. Von Frey filaments with logarithmically incremental stiffness (0.02-2 g) were applied serially to the paw by the up-down method. The filaments were presented, in ascending order of strength, perpendicular to the plantar surface with sufficient force to causes light bending against the paw and held for 4s. A positive response was noted if the paw was sharply withdrawn. Flinching immediately upon removal of the hair was also considered a positive response. The 2-g filament was selected as the upper limit cut-off for testing. If there was no response at 2-g filament, animals were assigned this cut-off value. The pattern of positive and negative withdrawal responses was converted to 50% threshold according to the formula: 50% PWT = 10 log (X) + κδ. X = value (in log unit) of the final von Frey hair used; κ is correction factors based on the pattern of responses from the calibration table; δ = mean difference in log units between stimuli (here, 0.224).

motor coordination = experiment: Rotarod test, motor coordination; type: in vivo; details: rats, 30 min after injection, ZL006-05 60 mg/kg, i.v., diazepam 0.5 mg/kg
α1β2γ2 GABAARs = biological target: T2, α1β2γ2 GABAARs (Homo sapiens, UniProt P14867+P18507+P47870); experiment: Potentiation of GABA-evoked currents, whole-cell patch-clamp in HEK293 cells transiently expressing recombinant GABAARs; type: cell-based; details: α1β2γ2, n = 8
T2 construct: Shanghai Genechem Co.,Ltd (γ2 plasmid); host or cells: HEK293
T2 sequence (P14867 28-456): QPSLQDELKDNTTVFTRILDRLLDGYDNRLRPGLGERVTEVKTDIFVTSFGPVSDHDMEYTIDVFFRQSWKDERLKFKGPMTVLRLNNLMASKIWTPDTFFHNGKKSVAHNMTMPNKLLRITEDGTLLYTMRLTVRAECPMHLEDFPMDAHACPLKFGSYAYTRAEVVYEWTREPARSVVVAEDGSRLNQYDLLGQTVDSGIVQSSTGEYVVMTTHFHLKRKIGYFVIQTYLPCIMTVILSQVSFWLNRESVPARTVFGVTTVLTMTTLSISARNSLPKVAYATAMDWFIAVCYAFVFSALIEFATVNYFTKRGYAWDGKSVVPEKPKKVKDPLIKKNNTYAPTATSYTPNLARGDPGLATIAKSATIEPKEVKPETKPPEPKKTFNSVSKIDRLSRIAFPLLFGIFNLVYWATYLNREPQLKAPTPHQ
T2 sequence (P47870 25-512 limits assumed): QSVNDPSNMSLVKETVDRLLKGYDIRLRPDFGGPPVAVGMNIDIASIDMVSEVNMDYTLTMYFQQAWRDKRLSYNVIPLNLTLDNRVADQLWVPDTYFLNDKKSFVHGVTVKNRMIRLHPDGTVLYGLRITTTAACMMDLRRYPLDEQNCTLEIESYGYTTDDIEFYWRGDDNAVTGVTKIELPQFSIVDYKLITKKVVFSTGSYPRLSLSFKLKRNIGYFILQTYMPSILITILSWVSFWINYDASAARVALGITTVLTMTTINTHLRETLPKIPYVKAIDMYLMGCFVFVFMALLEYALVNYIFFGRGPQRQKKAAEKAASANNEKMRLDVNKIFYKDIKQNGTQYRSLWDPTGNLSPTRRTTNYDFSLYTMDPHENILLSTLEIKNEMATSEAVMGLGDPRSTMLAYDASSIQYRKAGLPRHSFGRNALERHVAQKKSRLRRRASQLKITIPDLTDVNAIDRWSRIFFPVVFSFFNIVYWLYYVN
T2 sequence (P18507 40-475): as the sequence (P18507 40-475) above
Method: as §2, §3

α3β3γ2 GABAARs = biological target: T3, α3β3γ2 GABAARs (Homo sapiens, UniProt P18507+P28472+P34903); experiment: as above; type: cell-based; details: α3β3γ2, n = 8
T3 construct: Shanghai Genechem Co.,Ltd (γ2 plasmid); host or cells: HEK293
T3 sequence (P34903 29-492): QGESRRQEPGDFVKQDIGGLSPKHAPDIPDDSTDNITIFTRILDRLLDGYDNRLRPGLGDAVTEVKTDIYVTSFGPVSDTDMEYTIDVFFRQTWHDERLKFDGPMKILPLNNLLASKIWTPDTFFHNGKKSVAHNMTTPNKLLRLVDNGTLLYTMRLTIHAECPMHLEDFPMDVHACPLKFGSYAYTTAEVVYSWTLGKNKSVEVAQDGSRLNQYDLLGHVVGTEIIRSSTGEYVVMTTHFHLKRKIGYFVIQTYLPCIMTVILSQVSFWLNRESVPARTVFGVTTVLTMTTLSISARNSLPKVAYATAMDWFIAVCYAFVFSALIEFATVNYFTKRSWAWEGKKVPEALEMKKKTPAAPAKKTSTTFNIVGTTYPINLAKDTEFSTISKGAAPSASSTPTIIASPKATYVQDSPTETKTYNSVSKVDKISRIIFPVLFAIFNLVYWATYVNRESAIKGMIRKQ
T3 sequence (P28472 26-473): as the sequence (P28472 26-473) above
T3 sequence (P18507 40-475): as the sequence (P18507 40-475) above
Method: as §2, §3

locomotor activity = experiment: Open field test, locomotor activity; type: in vivo; details: mice, 1 h after injection, ZL006-05 60 mg/kg, i.v., diazepam 0.5 mg/kg
Method: The locomotor activity was assessed by the open field test as described previously. The apparatus consisted of a large area composed of plastic, surrounded by walls that were 100 cm high. The floor was 50 × 50 cm for mice; the overall illumination was 25 lux. Each animal was gently placed in the center of the open field, and its behavior was videotaped. The distance the animals travelled was measured in a 5-min session using ANY-maze (Stoelting Co., IL, USA). After each trial, the plate was cleaned with 70% EtOH. No stressor was applied to the animals for at least 12 h before the test.

PSD-95-nNOS complex = biological target: T4, PSD-95-nNOS complex (Rattus norvegicus, UniProt P29476); experiment: Co-IP of PSD-95-nNOS complex levels in the spinal dorsal horn after SNL; type: in vivo; details: SNL rats, 60 mg/kg/d, i.g., 3 d
T4 construct: dorsal spinal cord tissues (L4 and L5) were lysed in 400 μl RIPA; from tissue; host or cells: rat dorsal spinal cord (L4 and L5), SNL model
T4 sequence (P29476 whole entry, one chain of several): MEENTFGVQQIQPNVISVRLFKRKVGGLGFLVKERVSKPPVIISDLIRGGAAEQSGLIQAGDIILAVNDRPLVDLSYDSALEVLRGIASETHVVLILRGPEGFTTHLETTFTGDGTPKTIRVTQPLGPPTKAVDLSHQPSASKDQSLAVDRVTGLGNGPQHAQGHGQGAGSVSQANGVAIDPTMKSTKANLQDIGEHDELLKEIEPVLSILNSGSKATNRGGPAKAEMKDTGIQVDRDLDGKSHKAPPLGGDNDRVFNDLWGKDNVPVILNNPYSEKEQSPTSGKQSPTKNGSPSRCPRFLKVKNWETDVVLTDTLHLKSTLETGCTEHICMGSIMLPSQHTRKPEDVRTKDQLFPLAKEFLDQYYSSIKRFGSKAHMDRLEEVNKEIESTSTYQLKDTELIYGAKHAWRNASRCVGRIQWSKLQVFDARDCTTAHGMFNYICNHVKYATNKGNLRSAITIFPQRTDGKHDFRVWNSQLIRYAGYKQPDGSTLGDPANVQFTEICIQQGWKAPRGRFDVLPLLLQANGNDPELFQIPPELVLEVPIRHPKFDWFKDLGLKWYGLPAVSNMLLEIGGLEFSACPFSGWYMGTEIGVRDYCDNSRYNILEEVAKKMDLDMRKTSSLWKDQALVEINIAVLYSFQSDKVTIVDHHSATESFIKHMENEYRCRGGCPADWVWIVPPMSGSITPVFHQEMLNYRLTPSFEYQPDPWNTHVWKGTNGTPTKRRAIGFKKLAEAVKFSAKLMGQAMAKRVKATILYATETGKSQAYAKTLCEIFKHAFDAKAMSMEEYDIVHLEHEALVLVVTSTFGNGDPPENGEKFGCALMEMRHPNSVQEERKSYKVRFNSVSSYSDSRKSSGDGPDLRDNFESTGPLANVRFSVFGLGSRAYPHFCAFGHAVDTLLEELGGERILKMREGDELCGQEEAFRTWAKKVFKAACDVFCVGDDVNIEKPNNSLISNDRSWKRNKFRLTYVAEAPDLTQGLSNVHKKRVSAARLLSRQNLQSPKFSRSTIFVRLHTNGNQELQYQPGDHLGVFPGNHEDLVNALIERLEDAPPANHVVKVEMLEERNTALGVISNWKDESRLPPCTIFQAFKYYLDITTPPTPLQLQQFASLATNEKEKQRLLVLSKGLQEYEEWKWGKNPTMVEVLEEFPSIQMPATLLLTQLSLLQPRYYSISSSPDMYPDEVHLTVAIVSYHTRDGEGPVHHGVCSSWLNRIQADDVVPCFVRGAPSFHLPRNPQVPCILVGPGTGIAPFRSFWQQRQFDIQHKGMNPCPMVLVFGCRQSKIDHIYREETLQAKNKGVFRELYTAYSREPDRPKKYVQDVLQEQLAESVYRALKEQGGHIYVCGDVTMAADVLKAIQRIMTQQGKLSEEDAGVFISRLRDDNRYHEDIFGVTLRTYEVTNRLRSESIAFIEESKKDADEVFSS

## O=C(OC1CCCCC1)c1ccc(NCc2cc(Cl)cc(Cl)c2O)cc1O [ZL006-05A]
[1]
  Analgesic tolerance, mechanical hyperalgesia: caused substantial analgesic tolerance
α2β3γ2 GABAARs; α2β3γ2
  Effect on α2-containing GABAAR (in words): without ability to target α2-containing GABAAR

## C[C@]12N[C@H](Cc3ccccc31)c1ccccc12 [MK801]
Spatial memory
  Spatial memory in the Morris water maze task: caused significantly impaired spatial memory
Neuropathic pain
  Analgesic tolerance when used chronically: cause obvious analgesic tolerance

## CC(C)C[C@H](CN)CC(=O)O [pregabalin]
[2]
  Analgesic tolerance, mechanical hyperalgesia, 28 days treatment: caused a severe analgesic tolerance

## CN1C(=O)CN=C(c2ccccc2)c2cc(Cl)ccc21 [diazepam]
Motor coordination
  Motor coordination, time spent on the accelerating rotarod: shortened the time for rats to fall off an accelerating rotarod significantly
α1β2γ2 GABAARs
  Emax: 109 ± 18.5%
α3β3γ2 GABAARs
  Emax: 113 ± 8.58%
α2β3γ2 GABAARs; α2β3γ2, n = 8
  Emax: 118 ± 16.4%
Locomotor activity
  Locomotor activity, distance travelled during 5 min: reduced the locomotor activity of mice in the open-field test

## CC1(C)C2CCC1(C)C(OC(=O)c1ccc(NCc3ccccc3O)cc1O)C2 (centres unmarked) [ZL006-05B]
[1]
  Analgesic tolerance, mechanical hyperalgesia: caused substantial analgesic tolerance
α2β3γ2 GABAARs; α2β3γ2, n = 8
  EC50: 2.834 ± 0.0033 nM
  Emax: 104 ± 21.9%
PSD-95-nNOS complex
  PSD-95-nNOS complex level in the SDH: without ability to target PSD-95-nNOS
